As usually defined, the pIC50 is the IC50 on a negative log10 scale, so that one unit is a factor of ten.

These results are taken from ChEMBL document CHEMBL2016457, “Discovery of potent and orally bioavailable 17β-hydroxysteroid dehydrogenase type 3 inhibitors” (Bioorg Med Chem, 2012).

Test [1] has as its target T1, Estrogen receptor (Homo sapiens) (UniProt P03372).
T1 sequence (whole entry): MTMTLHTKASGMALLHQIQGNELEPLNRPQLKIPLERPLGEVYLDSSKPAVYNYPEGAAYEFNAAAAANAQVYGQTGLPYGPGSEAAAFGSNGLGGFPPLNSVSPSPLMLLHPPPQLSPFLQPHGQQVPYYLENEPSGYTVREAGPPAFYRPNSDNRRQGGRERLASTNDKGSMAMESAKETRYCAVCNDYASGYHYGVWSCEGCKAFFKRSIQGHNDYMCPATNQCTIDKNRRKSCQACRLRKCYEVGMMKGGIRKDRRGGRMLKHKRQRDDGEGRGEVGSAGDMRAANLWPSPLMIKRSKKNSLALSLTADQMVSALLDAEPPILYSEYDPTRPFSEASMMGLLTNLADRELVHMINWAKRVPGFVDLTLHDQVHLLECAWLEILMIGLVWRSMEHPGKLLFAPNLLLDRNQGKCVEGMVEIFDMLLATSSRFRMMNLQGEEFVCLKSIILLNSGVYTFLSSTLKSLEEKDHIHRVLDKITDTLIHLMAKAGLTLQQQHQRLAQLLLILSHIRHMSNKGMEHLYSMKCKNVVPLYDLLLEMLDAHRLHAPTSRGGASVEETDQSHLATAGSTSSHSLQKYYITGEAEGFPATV
Nature of the test: Antagonist activity at human ERalpha receptor expressed in human HeLa cells assessed as inhibition of DHT-induced response after 40 hrs by luciferase/beta-galactosidase-based reporter gene assay. The format is functional, cell-based. (In a reporter assay the amount or activity of a reporter protein is the signal.)

The target of test [2] is T2, Glucocorticoid receptor (Homo sapiens) (UniProt P04150).
T2 sequence (whole entry): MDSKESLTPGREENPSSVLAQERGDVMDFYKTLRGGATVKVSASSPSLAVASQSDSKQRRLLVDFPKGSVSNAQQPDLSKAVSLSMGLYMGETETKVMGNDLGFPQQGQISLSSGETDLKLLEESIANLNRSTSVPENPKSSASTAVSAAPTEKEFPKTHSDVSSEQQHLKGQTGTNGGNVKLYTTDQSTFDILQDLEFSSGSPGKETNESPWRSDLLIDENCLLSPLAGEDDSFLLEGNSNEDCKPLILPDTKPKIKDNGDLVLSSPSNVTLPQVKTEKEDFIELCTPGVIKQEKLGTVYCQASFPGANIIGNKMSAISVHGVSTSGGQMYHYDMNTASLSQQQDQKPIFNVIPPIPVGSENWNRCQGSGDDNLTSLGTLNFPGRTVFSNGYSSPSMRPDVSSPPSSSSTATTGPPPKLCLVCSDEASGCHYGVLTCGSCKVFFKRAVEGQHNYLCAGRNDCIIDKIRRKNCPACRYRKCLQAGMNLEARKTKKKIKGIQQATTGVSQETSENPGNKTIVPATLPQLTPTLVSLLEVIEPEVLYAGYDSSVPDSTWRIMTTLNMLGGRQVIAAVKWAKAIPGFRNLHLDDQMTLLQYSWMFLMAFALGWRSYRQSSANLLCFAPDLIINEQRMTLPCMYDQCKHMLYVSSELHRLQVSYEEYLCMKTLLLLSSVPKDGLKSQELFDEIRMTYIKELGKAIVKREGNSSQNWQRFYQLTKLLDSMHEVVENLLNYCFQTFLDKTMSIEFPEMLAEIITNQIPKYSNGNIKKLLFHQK
Nature of the test: Agonist activity at human Glucocorticoid receptor expressed in human HeLa cells assessed as DHT-induced response after 40 hrs by luciferase/beta-galactosidase-based reporter gene assay. The format is functional, cell-based.

The target of test [3] is T3, 17-beta-hydroxysteroid dehydrogenase type 1 (Homo sapiens) (UniProt P14061).
T3 sequence (whole entry): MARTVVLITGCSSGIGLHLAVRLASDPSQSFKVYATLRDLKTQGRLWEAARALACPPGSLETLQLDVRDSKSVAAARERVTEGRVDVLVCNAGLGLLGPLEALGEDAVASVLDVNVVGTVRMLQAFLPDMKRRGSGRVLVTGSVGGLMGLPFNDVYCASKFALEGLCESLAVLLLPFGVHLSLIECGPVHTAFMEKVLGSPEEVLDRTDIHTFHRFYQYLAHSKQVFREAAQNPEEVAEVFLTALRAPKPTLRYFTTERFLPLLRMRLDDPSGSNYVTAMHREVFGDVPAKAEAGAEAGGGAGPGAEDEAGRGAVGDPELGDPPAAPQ
Nature of the test: Inhibition of human recombinant 17-beta-HSD1 expressed in human HeLa cells using estrone as substrate preincubated for 30 mins prior substrate addition measured after 120 mins by spectrophotometry. It is filed as cell-based.

The target in test [4] is T1, Estrogen receptor (Homo sapiens). Nature of the test: Agonist activity at human Estrogen receptor ERalpha expressed in human HeLa cells assessed as DHT-induced response after 40 hrs by luciferase/beta-galactosidase-based reporter gene assay. It is filed as functional, cell-based.
Test [5] has as its target T4, 17-beta-hydroxysteroid dehydrogenase type 2 (Homo sapiens) (UniProt P37059).
T4 sequence (whole entry): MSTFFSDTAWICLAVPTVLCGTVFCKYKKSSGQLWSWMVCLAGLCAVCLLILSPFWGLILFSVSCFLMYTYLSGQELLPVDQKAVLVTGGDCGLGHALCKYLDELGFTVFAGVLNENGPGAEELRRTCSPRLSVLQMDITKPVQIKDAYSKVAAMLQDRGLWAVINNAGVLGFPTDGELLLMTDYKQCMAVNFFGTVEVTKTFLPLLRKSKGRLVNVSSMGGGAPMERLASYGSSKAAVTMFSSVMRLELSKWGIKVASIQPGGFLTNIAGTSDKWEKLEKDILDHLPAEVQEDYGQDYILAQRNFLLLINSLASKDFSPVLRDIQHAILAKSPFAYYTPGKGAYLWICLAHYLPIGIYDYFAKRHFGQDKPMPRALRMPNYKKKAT
Nature of the test: Inhibition of human recombinant 17-beta-HSD2 expressed in human HeLa cells using estradiol as substrate preincubated for 30 mins prior substrate addition measured after 120 mins by spectrophotometry. It is filed as cell-based.

In test [6] the target is T5, Androgen receptor (Homo sapiens) (UniProt P10275).
T5 sequence (whole entry): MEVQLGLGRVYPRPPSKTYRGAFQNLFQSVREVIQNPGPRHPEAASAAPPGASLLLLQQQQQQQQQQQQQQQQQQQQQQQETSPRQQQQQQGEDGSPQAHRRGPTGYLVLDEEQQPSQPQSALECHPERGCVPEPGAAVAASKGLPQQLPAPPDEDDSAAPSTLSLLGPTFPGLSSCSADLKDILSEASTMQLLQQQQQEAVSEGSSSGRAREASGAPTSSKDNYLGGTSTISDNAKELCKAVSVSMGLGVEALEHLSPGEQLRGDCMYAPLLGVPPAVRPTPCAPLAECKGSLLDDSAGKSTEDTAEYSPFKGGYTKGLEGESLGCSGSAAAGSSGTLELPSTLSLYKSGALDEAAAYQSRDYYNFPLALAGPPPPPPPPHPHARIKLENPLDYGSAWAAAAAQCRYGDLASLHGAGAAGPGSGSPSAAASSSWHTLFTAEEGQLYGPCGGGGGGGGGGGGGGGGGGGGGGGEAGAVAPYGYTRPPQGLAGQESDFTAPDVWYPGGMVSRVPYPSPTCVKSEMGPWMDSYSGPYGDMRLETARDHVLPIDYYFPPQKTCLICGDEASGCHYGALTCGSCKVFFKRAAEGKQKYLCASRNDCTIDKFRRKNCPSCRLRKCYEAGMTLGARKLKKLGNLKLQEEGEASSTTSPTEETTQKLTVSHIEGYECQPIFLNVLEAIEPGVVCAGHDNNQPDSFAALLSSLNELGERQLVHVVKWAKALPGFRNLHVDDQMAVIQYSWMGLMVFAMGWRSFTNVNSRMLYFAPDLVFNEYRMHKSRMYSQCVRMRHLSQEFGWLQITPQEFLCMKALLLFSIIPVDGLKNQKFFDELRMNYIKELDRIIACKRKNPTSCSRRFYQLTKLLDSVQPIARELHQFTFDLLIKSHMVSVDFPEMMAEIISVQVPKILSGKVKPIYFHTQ
Nature of the test: Antagonist activity at human androgen receptor expressed in human HeLa cells assessed as inhibition of DHT-induced response after 40 hrs by luciferase/beta-galactosidase-based reporter gene assay. The format is functional, cell-based.

The target of test [7] is T6, 17-beta-hydroxysteroid dehydrogenase type 3 (Homo sapiens, UniProt P37058).
T6 sequence (P37058 whole entry): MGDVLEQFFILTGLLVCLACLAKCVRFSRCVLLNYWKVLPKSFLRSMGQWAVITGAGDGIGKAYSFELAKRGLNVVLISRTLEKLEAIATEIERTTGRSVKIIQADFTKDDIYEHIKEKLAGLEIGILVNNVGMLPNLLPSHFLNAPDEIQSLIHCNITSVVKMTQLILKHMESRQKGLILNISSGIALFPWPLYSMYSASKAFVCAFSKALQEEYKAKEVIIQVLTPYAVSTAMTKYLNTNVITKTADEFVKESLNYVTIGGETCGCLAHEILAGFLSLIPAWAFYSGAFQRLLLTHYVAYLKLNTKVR
Particulars: hela.
Description: (§1) Inhibition of human recombinant 17-beta-HSD3 expressed in human HeLa cells using androstenedione as substrate preincubated for 30 mins prior substrate addition measured after 120 mins by spectrophotometry

Test [8] concerns the target T5, Androgen receptor (Homo sapiens). Nature of the test: Agonist activity at human androgen receptor expressed in human HeLa cells assessed as DHT-induced response after 40 hrs by luciferase/beta-galactosidase-based reporter gene assay. The format is functional, cell-based.
The target in test [9] is T2, Glucocorticoid receptor (Homo sapiens). Nature of the test: Antagonist activity at human GR receptor expressed in human HeLa cells assessed as inhibition of DHT-induced response after 40 hrs by luciferase/beta-galactosidase-based reporter gene assay. It is filed as functional, cell-based.
The target of test [10] is T6, 17-beta-hydroxysteroid dehydrogenase type 3.
Description: as §1

SMILES strings stand for the structures. pIC50: −log10 of the molar value. The source made the active and inactive calls.

Consider `COc1ccc(N2C(=O)/C(=C(/c3ccc(O)c(Br)c3)C(F)(F)F)SC2=S)cc1`, for which the result in test [1], in test [2], in [4], in test [6], in [8] and in test [9] was inactive. For the same compound, the inhibition result in test [3] and in test [5] was “inactive” throughout. For the same compound, the IC50 entry in test [7] was “Not Active”.

Turning to `NS(=O)(=O)c1ccc(N2C(=O)O/C(=C\c3ccc(O)c(Br)c3)C2=O)cc1`, the outcome in test [1], in [2], in test [4], in [6], in test [8] and in test [9] was inactive. Also, the inhibition entry in [3] and in [5] was “inactive” in each case. Moreover, the IC50 entry in test [7] is given as “Not Active”.

Consider `COc1ccc(N2C(=O)O/C(=C\c3cc(Cl)c(O)c(Cl)c3)C2=O)cc1`, for which the outcome in [1], in test [2], in [4], in test [6], in test [8] and in test [9] was inactive. Moreover, the inhibition result in [3] and in test [5] was “inactive” in each case. The IC50 entry in test [7] is reported as “Not Active”.

Turning to `COc1ccc(N2C(=O)O/C(=C\c3ccc(O)c(CN(C)C)c3)C2=O)cc1`, the result in test [1], in test [2], in test [4], in [6], in [8] and in test [9] was inactive. Also, the inhibition entry in test [3] and in test [5] was “inactive” throughout. Further, the IC50 entry in test [7] was “Not Active”.

For `O=C1O/C(=C\c2ccc(O)c(Br)c2)C(=O)N1c1ccccn1`, the outcome in test [1], in test [2], in test [4], in test [6], in test [8] and in test [9] was inactive. Besides, the inhibition entry in [3] and in test [5] was “inactive” throughout. Moreover, the pIC50 in test [10] was 7.13.

On to `O=C1/C(=C/c2ccc(O)c(Br)c2)OC(=S)N1c1ccc(Cl)cc1`, for which the outcome in test [1], in test [2], in test [4], in test [6], in [8] and in [9] was inactive. Further, the inhibition entry in test [3] and in [5] was “inactive” throughout. This compound had a pIC50 in [10] of 8.22.

As for `O=C1/C(=C/c2ccc(O)c(Br)c2)SC(=S)N1C1CCCCC1`, the result in test [1], in test [2], in test [4], in test [6], in test [8] and in [9] was inactive. Further, the inhibition result in test [3] and in [5] was “inactive” each time. The negative-log IC50 (pIC50) in test [10] was 8.52.

Consider `O=C(Nc1ccc(N2C(=O)O/C(=C\c3ccc(O)c(Br)c3)C2=O)cc1)C1CCCCC1`, for which the outcome in test [1], in test [2], in test [4], in test [6], in [8] and in test [9] was inactive. Also, the inhibition entry in test [3] and in test [5] was “inactive” throughout. In addition, in test [10], the pIC50 is 7.68.
